Like-named read-outs stand apart in the source and are kept apart here.
Assays:
Type in all cases: cell-based, human
BT-474 cells = experiment: MTS viability assay, BT-474 breast cancer cells; conditions: 48 h, MTS
Protocol: (§1) FIG. 2C. Effects of compounds 1-11 on the viability of BT-474 cells. BT-474 cells were cultured in DMEM/F12 medium supplemented with 10% FBS. Equal numbers were dispersed into 96-well plates. After 24 h, the cells were incubated with compounds 1-11 (0-30 μM) for 48 h. At the end of the incubation, MTS reagent (20% vol/vol) was added and the plates were incubated for 1-4 h. The OD490 was read with a plate reader. Wells with media but no cells were treated in similar fashion and the values utilized as blank. The results represent the mean±standard deviation of 6 independent determinations.
(§2) The cell lines were cultured from frozen stocks originally obtained from ATCC. MDA-MB-231, JIMT-1, DU145, U81, U251 cells were grown in DMEM medium. BT474, A2780s, A2780cp cells were grown in DMEM/F12 medium supplemented with 10% FBS. MiaPaCa2 was cultured in DMEM supplemented with 10% FBS and 2.5% horse serum. PC3 cells were cultured in F12K medium supplemented with 10% FBS. All the media were supplemented with penicillin/streptomycin.
(§3) The effects of the GAELs on the viability of the various epithelial cancer cell lines was determined as previously described. Briefly, equal numbers of the cells were dispersed into 96-well plates. After 24 h, the cells were incubated with the compounds (0-30 μM) for 48 h. At the end of the incubation, MTS reagent (20% vol/vol) was added and the plates were incubated for 1-4 h. The OD490 was read with a plate reader. Wells with media but no cells were treated in similar fashion and the values utilized as blank. The results represent the mean±standard deviation of 6 independent determinations.

DU145 cells = experiment: MTS viability assay, DU145 prostate cancer cells
Protocol: as §1, with “2D.” for “2C.”, “DU145” for “BT-474”, “DMEM” for “DMEM/F12”
as §1, with “2H. Effect” for “2C. Effects”, “1, 69-72” for “1-11”, “DU145” for “BT-474”, “DMEM” for “DMEM/F12”, “1, 69-72” for “1-11 (0-30 μM)”
as §2, §3

JIMT-1 cells = experiment: MTS viability assay, JIMT-1 breast cancer cells
Protocol: as §1, with “2B.” for “2C.”, “JIMT-1” for “BT-474”, “DMEM” for “DMEM/F12”
as §1, with “2J.” for “2C.”, “1, 69-72” for “1-11”, “JIMT-1” for “BT-474”, “DMEM” for “DMEM/F12”, “1, 69-72” for “1-11 (0-30 μM)”
as §2, §3

[1] = system: BT-474, JIMT-1, MDA-MB-231 (breast), DU145, PC3 (prostate), MiaPaCa2 (pancreas); experiment: MTS viability, panel of epithelial cancer cell lines (ranges over the cell lines)
Protocol: To determine the effect of compounds 1-10 on the viability of the epithelial cancer cell lines, exponentially growing cells, BT-474, JIMT-1, MDA-MB-231 (breast), DU145, PC3 (prostate), MiaPaCa2 (pancreas) were incubated with varying concentrations of 1-8 (0-30 μM) for 48 h followed by viability assays with the MTS reagent.
as §3

MiaPaCa2 cells = experiment: MTS viability assay, MiaPaCa2 pancreas cancer cells
Protocol: as §1, with “2F.” for “2C.”, “MiaPaCa2” for “BT-474”, “DMEM” for “DMEM/F12”, “FBS and 2.5% horse serum.” for “FBS.”
as §1, with “2I.” for “2C.”, “1, 69-72” for “1-11”, “MiaPaCa2” for “BT-474”, “DMEM” for “DMEM/F12”, “FBS and 2.5% horse serum.” for “FBS.”, “1, 69-72” for “1-11 (0-30 μM)”
as §2, §3

MDA-MB-231 cells = experiment: MTS viability assay, MDA-MB-231 breast cancer cells
Protocol: as §1, with “FIG. 2A.” for “FIG. 2C.”, “of MDA-MB231” for “of BT-474”, “cells. MDA-MB-231” for “cells. BT-474”, “in DMEM” for “in DMEM/F12”
as §1, with “2K.” for “2C.”, “1, 69-72” for “1-11”, “MDA-MB-231” for “BT-474”, “DMEM” for “DMEM/F12”, “1, 69-72” for “1-11 (0-30 μM)”
as §2, §3

PC3 cells = experiment: MTS viability assay, PC3 prostate cancer cells; conditions: 48 h, MTS
Protocol: as §1, with “2E.” for “2C.”, “PC3” for “BT-474”, “F12K” for “DMEM/F12”
as §2, §3

[2] = Table 1B, read-out: CC90 values BT474
[3] = Table 1A, 48 h, read-out: CC50 values DU 145
[4] = Table 1B, 48 h, read-out: CC90 values DU 145
[5] = Table 1A, 48 h, read-out: CC50 values JIMT1
[6] = Table 1B, 48 h, read-out: CC90 values JIMT1
[7] = Table 1A, 48 h, read-out: CC50 values MiaPaCa2
[8] = Table 1B, 48 h, read-out: CC90 values MiaPaCa2
[9] = Table 1A, 48 h, read-out: CC50 values MD 231
[10] = Table 1B, 48 h, read-out: CC90 values MD 231
[11] = Table 1A, read-out: CC50 values PC3
[12] = Table 1B, read-out: CC90 values PC3
[13] = Table 6, 48 h, read-out: DU145 CC50
[14] = Table 6, 48 h, read-out: DU145 CC90
[15] = Table 6, 48 h, read-out: JIMT1 CC50
[16] = Table 6, 48 h, read-out: JIMT1 CC90
[17] = Table 6, 48 h, read-out: MiaPaCa2 CC50
[18] = Table 6, 48 h, read-out: MiaPaCa2 CC90
[19] = Table 6, 48 h, read-out: MB-MDA-231 CC50
[20] = Table 6, 48 h, read-out: MB-MDA-231 CC90

CCCCCCCCCCCCCCCCOC[C@H](CO[C@@H]1O[C@H](CN)[C@@H](O)[C@H](O)[C@H]1N)OC [Compound 2, 1-O-Hexadecyl-2-O-methyl-3-O-(-2′,6′-diamino-2′,6′-dideoxy-β-D-glucopyranosyl)-sn-glycerol]
CC90 (BT-474 cells; [2]): 14 µM | CC50 (DU145 cells; [3]): 6 µM | CC90 (DU145 cells; [4]): 8.5 µM | CC50 (JIMT-1 cells; [5]): 4.2 µM | CC90 (JIMT-1 cells; [6]): 6.5 µM | CC50 ([1]; range over the cell lines tested, 48 h, read-out: CC50 values, range depending on the cell line): 4.2 to 11.5 µM | CC50 (MiaPaCa2 cells; [7]): 7 µM | CC90 (MiaPaCa2 cells; [8]): 12 µM | CC50 (MDA-MB-231 cells; [9]): 5.5 µM | CC90 (MDA-MB-231 cells; [10]): 7 µM | CC50 (PC3 cells; [11]): 11 µM | CC90 (PC3 cells; [12]): 14 µM

CCCCCCCCCCCCCCCCOCC(CO[C@@H]1O[C@H](CO)[C@@H](O)[C@H](O)[C@H]1N)NC(=O)CCCCCCCCCCCCCCC (stereo partly drawn) [Compound 9, 1-O-Hexadecyloxy-2S/R—N-hexadecylacyl-3-(-2′-amino-2′-deoxy-β-D-glucopyranosyl)-glycerol]
CC50 (BT-474 cells; Table 1A, read-out: CC50 values BT474): > 30 µM | CC90 (BT-474 cells; [2]): > 30 µM | CC50 (DU145 cells; [3]): > 30 µM | CC90 (DU145 cells; [4]): > 30 µM | CC50 (JIMT-1 cells; [5]): > 30 µM | CC90 (JIMT-1 cells; [6]): > 30 µM | activity at the highest concentration tested ([1]; 30 μM, all the cell lines tested): not active | CC50 (MiaPaCa2 cells; [7]): > 30 µM | CC90 (MiaPaCa2 cells; [8]): > 30 µM | CC50 (MDA-MB-231 cells; [9]): > 30 µM | CC90 (MDA-MB-231 cells; [10]): > 30 µM | CC50 (PC3 cells; [11]): > 30 µM | CC90 (PC3 cells; [12]): > 30 µM

CCCCCCCCCCCCCCCCOC[C@H](COC1O[C@H](CN)[C@@H](O)[C@H](O)[C@H]1NCCCCCCCCCCCCN)OC (some centres unmarked) [Compound 75, 1-O-Hexadecyl-2-O-methyl-3-O-[2′-N-(12-aminododecyl)-2′,6′-diamino-2′,6′-dideoxy-glucopyranoside]-sn-glycerol]
CC50 (BT-474 cells; Table 6, read-out: BT474 CC50): 13.5 µM | CC90 (BT-474 cells; Table 6, read-out: BT474 CC90): 16.5 µM | CC50 (DU145 cells; [13]): 7.5 µM | CC90 (DU145 cells; [14]): 9.5 µM | CC50 (JIMT-1 cells; [15]): 8 µM | CC90 (JIMT-1 cells; [16]): 9.5 µM | cytotoxicity against all cell lines examined ([1]; tricationic GAELs, FIG. 2O, Table 6): cytotoxic | CC50 (MiaPaCa2 cells; [17]): 8.5 µM | CC90 (MiaPaCa2 cells; [18]): 12 µM | CC50 (MDA-MB-231 cells; [19]): 5.5 µM | CC90 (MDA-MB-231 cells; [20]): 9.5 µM | CC50 (PC3 cells; Table 6, read-out: PC3 CC50): 8.5 µM | CC90 (PC3 cells; Table 6, read-out: PC3 CC90): 11.5 µM

CCCCCCCCCCCCCCCCOC[C@H](COC1O[C@H](CN)[C@@H](O)[C@H](O)[C@H]1NCCCN)OC (some centres unmarked) [Compound 76, 1-O-Hexadecyl-2-O-methyl-3-O-[2′-N-(3-aminopropyl)-2′,6′-diamino-2′,6′-dideoxy-glucopyranoside]-sn-glycerol]
CC50 (BT-474 cells; Table 6, read-out: BT474 CC50): > 20 µM | CC90 (BT-474 cells; Table 6, read-out: BT474 CC90): > 20 µM | CC50 (DU145 cells; [13]): 18.5 µM | CC90 (DU145 cells; [14]): > 20 µM | CC50 (JIMT-1 cells; [15]): 12.5 µM | CC90 (JIMT-1 cells; [16]): 16.5 µM | CC50 (MiaPaCa2 cells; [17]): 14.5 µM | CC90 (MiaPaCa2 cells; [18]): > 20 µM | CC50 (MDA-MB-231 cells; [19]): 17.5 µM | CC90 (MDA-MB-231 cells; [20]): > 20 µM | CC50 (PC3 cells; Table 6, read-out: PC3 CC50): 14.5 µM | CC90 (PC3 cells; Table 6, read-out: PC3 CC90): > 20 µM

— patent publication US10806746B2, “Di- and tri-cationic glycosylated antitumor ether lipids, L-gucosylated gaels and rhamnose-linked gaels as cytotoxic agents against epithelial cancer cells and cancer stem cells” (The University of Manitoba, priority 2014, dated 2020)
